The target of the test is T1, rhCRTh2 (Homo sapiens, UniProt Q9Y5Y4).
T1 construct: expressed in transfected cells; membranes prepared
T1 sequence (Q9Y5Y4 1-395): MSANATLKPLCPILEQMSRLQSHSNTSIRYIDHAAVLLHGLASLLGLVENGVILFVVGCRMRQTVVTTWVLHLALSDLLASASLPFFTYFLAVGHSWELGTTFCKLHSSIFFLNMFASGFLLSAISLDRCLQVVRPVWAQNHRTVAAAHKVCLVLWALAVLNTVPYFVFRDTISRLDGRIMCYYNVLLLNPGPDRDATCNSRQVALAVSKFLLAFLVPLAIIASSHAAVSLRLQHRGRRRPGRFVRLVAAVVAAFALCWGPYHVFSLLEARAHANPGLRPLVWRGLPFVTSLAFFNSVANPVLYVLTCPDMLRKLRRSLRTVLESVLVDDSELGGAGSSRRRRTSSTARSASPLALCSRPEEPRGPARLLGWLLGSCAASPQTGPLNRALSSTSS
The test can be described thus: Ligand binding assay ([3H]PGD2 SPA, HEK cell membranes). Particulars: [3H]PGD2 displacement, membranes of HEK cells expressing rhCRTh2/Ga16, SPA beads, 2 hours room temperature. How it is done: [^3H]PGD2 was purchased from Perkin Elmer Life Sciences with a specific activity of 100-210 Ci/mmol All other chemicals were of analytical grade.
HEK cells expressing rhCRTh2/Ga16 were routinely maintained in DMEM containing 10% Foetal Bovine Serum (HyClone), 1 mg/ml geneticin, 2 mM L-glutamine and 1% non-essential amino acids. For the preparation of membranes, the adherent transfected HEKcells were grown to confluence in two layer tissue culture factories (Fisher, catalogue number TKT-170-070E). Maximal levels of receptor expression were induced by addition of […] sodium butyrate for the last 18 hours of culture. The adherent cells were washed once with phosphate buffered saline (PBS, 50 ml per cell factory) and detached by the addition of 50 ml per cell factory of ice-cold membrane homogenisation buffer [20 mM HEPES (pH 7.4), 0.1 mM dithiothreitol, 1 mM EDTA, 0.1 mM phenyl methyl sulphonyl fluoride and 100 μg/ml bacitracin]. […] The final pellet was re-suspended in 4 ml of membrane homogenisation buffer per cell factory used and the protein content determined Membranes were stored at −80° C. in suitable aliquots.
All assays were performed in Corning clear bottomed, white 96-well NBS plates (Fisher). […] (The optimum coating concentrations were determined for each batch of membranes) The beads were pelleted by centrifugation (800×g for 7 minutes at 4° C.), washed once with assay buffer (50 mM HEPES pH 7.4 containing 5 mM magnesium chloride) and finally re-suspended in assay buffer at a bead concentration of 10 mg/ml.
Each assay contained 20 μl of 6.25 nM [^3H]PGD2, 20 μl membrane saturated SPA beads both in assay buffer and 10 μl of compound solution or 13,14-dihydro-15-keto prostaglandin D2 (DK-PGD2, for determination of non-specific binding, Cayman chemical company). […] The assay plate was incubated at room temperature for 2 hours and counted on a Wallac Microbeta liquid scintillation counter (1 minute per well).

Structures can show the parent of a compound that is named as a salt.

The compound `CCS(=O)(=O)c1ccc(Cc2cc(C(F)(F)F)ccc2OCC(=O)O)cc1` [Example 4, [2-[4-(Ethylsulfonyl)benzyl]-4-(trifluoromethyl)phenoxy]acetic acid] gave an IC50 of 10 nM.

The compound `CCS(=O)(=O)c1ccc(Oc2cc(F)ccc2OCC(=O)O)c(Cl)c1` [Example 43, {2-[2-Chloro-4-(ethylsulfonyl)phenoxy]-4-fluorophenoxy}acetic acid] showed an IC50 of 1 nM.

`CCS(=O)(=O)c1ccc(Oc2cc(Cl)ccc2OCC(=O)O)cc1` [Example 5, [4-Chloro-2-[4-(ethylsulfonyl)phenoxy]phenoxy]acetic acid, sodium salt] showed an IC50 of 10 nM.
